From ChEMBL document CHEMBL3425413, “Structure-based design and synthesis of covalent-reversible inhibitors to overcome drug resistance in EGFR” (Bioorg Med Chem, 2015)
pIC50: −log10 of the molar value. Calls of active or inactive are those of the source. The calls are words filed in the database; no cut-off is given here.

Assays:
[1] = biological target: Epidermal growth factor receptor (Homo sapiens, UniProt P00533); assay: Inhibition of wild type N-terminal His6-tagged human EGFR kinase domain (702 to 1016 residues) expressed in Sf9 cells pre-incubated for 30 mins before ATP and substrate addition by homogeneous time-resolved FRET assay
Sequence of Epidermal growth factor receptor (Homo sapiens, UniProt P00533) (P00533 whole entry, the tested form may be a part): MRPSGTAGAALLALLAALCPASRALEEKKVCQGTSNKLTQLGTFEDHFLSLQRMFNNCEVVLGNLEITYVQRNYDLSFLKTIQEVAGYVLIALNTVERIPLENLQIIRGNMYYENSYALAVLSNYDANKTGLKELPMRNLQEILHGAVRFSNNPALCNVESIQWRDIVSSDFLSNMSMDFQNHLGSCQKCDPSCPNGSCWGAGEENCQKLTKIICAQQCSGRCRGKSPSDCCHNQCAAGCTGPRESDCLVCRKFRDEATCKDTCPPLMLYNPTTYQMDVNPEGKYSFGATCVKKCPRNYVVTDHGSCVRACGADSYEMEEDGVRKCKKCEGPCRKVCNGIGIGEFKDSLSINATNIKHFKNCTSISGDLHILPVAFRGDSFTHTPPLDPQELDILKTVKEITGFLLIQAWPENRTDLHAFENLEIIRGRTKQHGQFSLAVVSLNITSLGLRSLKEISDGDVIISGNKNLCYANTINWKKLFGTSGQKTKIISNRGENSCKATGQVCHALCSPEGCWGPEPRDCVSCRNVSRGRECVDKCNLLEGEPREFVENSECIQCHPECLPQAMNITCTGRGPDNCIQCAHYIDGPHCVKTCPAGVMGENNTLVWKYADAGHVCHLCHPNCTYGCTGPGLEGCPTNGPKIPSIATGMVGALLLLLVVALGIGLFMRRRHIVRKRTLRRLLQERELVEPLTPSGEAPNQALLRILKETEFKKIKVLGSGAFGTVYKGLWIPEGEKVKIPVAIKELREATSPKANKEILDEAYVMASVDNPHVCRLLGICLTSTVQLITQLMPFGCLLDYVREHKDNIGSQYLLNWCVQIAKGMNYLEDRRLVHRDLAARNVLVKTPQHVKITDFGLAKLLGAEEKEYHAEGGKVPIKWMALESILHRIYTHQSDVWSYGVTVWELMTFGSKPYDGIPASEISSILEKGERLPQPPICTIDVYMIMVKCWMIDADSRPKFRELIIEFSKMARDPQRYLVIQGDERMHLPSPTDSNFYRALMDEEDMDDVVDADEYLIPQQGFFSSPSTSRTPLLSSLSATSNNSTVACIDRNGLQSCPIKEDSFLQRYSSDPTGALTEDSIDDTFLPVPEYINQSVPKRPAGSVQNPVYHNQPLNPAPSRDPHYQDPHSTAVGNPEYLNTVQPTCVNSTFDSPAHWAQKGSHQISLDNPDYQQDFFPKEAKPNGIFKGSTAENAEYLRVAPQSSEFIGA

[2] = biological target: Epidermal growth factor receptor (Homo sapiens, UniProt P00533, L858R); assay: Inhibition of GST-tagged human recombinant EGFR catalytic domain (668 to 1210 amino acids) L858R mutant expressed in Sf9 cells pre-incubated for 30 mins before ATP and substrate addition by homogeneous time-resolved FRET assay
Sequence of Epidermal growth factor receptor (Homo sapiens, UniProt P00533, L858R) (P00533 25-1210 L858R limits assumed): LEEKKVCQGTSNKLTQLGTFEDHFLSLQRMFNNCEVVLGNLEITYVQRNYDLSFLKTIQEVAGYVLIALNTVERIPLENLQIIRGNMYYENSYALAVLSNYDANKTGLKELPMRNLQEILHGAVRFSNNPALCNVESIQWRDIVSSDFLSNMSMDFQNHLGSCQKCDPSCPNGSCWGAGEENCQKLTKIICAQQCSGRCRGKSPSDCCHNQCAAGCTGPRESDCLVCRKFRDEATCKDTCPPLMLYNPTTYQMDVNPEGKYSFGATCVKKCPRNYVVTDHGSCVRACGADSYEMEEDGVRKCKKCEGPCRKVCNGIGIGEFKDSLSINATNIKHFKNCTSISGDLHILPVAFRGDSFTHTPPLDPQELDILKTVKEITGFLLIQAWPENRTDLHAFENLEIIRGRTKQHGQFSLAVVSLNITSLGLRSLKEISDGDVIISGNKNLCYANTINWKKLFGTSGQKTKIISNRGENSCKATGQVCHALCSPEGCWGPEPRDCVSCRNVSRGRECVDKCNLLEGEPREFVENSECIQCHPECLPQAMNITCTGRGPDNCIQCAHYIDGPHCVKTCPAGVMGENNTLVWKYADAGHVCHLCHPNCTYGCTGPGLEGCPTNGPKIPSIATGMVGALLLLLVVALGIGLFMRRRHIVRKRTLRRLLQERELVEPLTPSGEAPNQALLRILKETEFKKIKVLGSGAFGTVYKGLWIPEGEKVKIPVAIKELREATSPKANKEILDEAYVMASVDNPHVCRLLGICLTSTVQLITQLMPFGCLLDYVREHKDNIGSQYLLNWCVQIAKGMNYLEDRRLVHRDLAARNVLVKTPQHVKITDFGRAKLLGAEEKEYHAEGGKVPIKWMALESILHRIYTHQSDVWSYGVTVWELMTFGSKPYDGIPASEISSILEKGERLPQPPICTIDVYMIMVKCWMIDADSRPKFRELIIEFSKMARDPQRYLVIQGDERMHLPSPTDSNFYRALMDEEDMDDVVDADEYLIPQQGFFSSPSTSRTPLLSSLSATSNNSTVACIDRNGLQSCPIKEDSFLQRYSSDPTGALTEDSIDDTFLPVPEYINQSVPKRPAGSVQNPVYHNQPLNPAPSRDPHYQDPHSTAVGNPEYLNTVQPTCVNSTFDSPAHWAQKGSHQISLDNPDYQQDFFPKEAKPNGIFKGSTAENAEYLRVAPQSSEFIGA

[3] = biological target: Epidermal growth factor receptor (Homo sapiens, UniProt P00533, L858R/T790M); assay: Inhibition of GST-tagged human recombinant EGFR catalytic domain (668 to 1210 amino acids) T790M/L858R mutant expressed in Sf9 cells pre-incubated for 30 mins before ATP and substrate addition by homogeneous time-resolved FRET assay
Sequence of Epidermal growth factor receptor (Homo sapiens, UniProt P00533, L858R/T790M) (P00533 25-1210 T790M/L858R limits assumed): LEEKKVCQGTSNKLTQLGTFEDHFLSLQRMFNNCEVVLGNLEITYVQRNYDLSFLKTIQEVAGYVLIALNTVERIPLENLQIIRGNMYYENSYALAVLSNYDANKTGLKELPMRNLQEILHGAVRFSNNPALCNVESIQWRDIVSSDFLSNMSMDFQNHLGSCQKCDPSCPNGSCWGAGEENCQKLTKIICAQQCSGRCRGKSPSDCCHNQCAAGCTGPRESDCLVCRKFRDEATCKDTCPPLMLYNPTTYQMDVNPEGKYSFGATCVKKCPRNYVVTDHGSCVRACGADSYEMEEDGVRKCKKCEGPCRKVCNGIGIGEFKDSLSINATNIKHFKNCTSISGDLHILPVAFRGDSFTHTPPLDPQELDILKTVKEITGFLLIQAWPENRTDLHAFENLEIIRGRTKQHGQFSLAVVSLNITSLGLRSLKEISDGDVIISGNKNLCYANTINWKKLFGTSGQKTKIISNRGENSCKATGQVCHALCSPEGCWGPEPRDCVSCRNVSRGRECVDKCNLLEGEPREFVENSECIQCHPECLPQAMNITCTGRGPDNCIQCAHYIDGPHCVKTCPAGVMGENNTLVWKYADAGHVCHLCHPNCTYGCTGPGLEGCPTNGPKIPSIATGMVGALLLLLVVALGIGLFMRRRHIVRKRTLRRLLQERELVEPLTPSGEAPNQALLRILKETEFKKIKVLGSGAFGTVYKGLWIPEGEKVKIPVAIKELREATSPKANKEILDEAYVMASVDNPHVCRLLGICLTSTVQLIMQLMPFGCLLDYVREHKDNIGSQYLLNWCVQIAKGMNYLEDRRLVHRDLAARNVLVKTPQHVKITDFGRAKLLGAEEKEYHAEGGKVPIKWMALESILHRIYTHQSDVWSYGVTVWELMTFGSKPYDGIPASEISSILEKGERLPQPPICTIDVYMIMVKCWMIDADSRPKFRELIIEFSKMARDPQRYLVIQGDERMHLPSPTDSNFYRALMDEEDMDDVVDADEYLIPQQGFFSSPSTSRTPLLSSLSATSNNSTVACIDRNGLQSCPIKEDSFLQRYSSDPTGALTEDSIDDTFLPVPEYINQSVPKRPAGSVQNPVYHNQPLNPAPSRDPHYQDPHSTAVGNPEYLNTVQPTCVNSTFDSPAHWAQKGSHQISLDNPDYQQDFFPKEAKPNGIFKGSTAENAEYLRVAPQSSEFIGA

[4] = test system: Proto-oncogene tyrosine-protein kinase Src (Homo sapiens), P12931 [T341M,S348C]; assay: Induction of covalent modification of c-Src kinase domain (251 to 533 residues) T338M/S345C mutant (unknown origin) at 100 uM incubated for 1 hr by mass spectrometry method
[5] = biological target: Proto-oncogene tyrosine-protein kinase Src (Homo sapiens) (UniProt P12931); assay: Induction of covalent modification of wild type c-Src kinase domain (251 to 533 residues) (unknown origin) at 100 uM incubated for 1 hr by mass spectrometry method
[6] = test system: Proto-oncogene tyrosine-protein kinase Src (Homo sapiens), P12931 [T341M,S348C]; assay: Induction of covalent modification of c-Src kinase domain (251 to 533 residues) T338M/S345C mutant (unknown origin) assessed as protein mass increase at 100 uM incubated for 1 hr by mass spectrometry method

Structure (SMILES) | pIC50 [1] | pIC50 [2] | pIC50 [3] | Activity [4] | Activity [5] | Activity [6] [Da]
COc1cc(N2CCN(C)CC2)ccc1Nc1ncc(Cl)c(Oc2cccc(NC(=O)CCC3CC3)c2)n1 | < 5.00 | 5.70 | 6.11 | inactive | inactive | 
COc1cc(N2CCN(C)CC2)ccc1Nc1ncc(Cl)c(Oc2cccc(NC(=O)/C(C#N)=C/C3CCCC3)c2)n1 | < 5.00 | 5.66 | 5.92 |  |  | 
COc1cc(N2CCN(C)CC2)ccc1Nc1ncc(Cl)c(Oc2cccc(NC(=O)/C(C#N)=C/C3CC3)c2)n1 |  |  |  |  | Active | 560
COc1cc(N2CCN(C)CC2)ccc1Nc1ncc(Cl)c(Oc2cccc(NC(=O)/C(C#N)=C/c3ccc([N+](=O)[O-])cc3)c2)n1 | < 5.00 | 5.64 | 5.92 |  |  | 
COc1cc(N2CCN(C)CC2)ccc1Nc1ncc(Cl)c(Oc2cccc(NC(C)=O)c2)n1 | < 5.00 | 6.31 | 6.74 |  |  | 
COc1cc(N2CCN(C)CC2)ccc1Nc1ncc(Cl)c(Oc2cccc(NC(=O)/C(C#N)=C/c3ccc(F)cc3)c2)n1 | 5.15 | 6.27 | 6.92 |  |  | 
COc1cc(N2CCN(C)CC2)ccc1Nc1ncc(Cl)c(Oc2cccc(NC(=O)/C=C/C3CC3)c2)n1 | 5.25 | 5.55 | 6.08 |  |  | 537
COc1cc(N2CCN(C)CC2)ccc1Nc1ncc(Cl)c(Oc2cccc(NC(=O)/C(C#N)=C/c3ccc(N(C)C)cc3)c2)n1 | < 5.00 | < 5.00 | < 5.00 |  |  | 
COc1cc(N2CCN(C)CC2)ccc1Nc1ncc(Cl)c(Oc2cccc(NC(=O)/C(C#N)=C/c3ccco3)c2)n1 | < 5.00 | 5.89 | 6.48 |  |  | 
COc1cc(N2CCN(C)CC2)ccc1Nc1ncc(Cl)c(Oc2cccc(NC(=O)/C(C#N)=C/C(C)(C)C)c2)n1 | < 5.00 | 5.89 | 6.40 |  |  | 
COc1cc(N2CCN(C)CC2)ccc1Nc1ncc(Cl)c(Oc2cccc(NC(=O)/C(C#N)=C/c3ccc(SC)cc3)c2)n1 | 5.32 | 6.08 | 6.29 |  |  | 

The remaining lines, values ahead:

pIC50 [1] | pIC50 [2] | pIC50 [3] | Activity [4] | Activity [5] | Activity [6] [Da] | Structure (SMILES)
< 5.00 | 5.74 | 6.14 |  |  |  | COc1cc(N2CCN(C)CC2)ccc1Nc1ncc(Cl)c(Oc2cccc(NC(=O)/C(C#N)=C/c3cccc([N+](=O)[O-])c3)c2)n1
5.06 | 6.82 | 7.43 |  |  |  | COc1cc(N2CCN(C)CC2)ccc1Nc1ncc(Cl)c(Oc2cccc(NC(=O)/C(C#N)=C/c3ccncc3)c2)n1
< 5.00 | 5.92 | 6.10 |  |  |  | COc1cc(N2CCN(C)CC2)ccc1Nc1ncc(Cl)c(Oc2cccc(NC(=O)/C(C#N)=C/C(C)C)c2)n1
< 5.00 | < 5.00 | 5.20 |  |  |  | COc1cc(N2CCN(C)CC2)ccc1Nc1ncc(Cl)c(Oc2cccc(NC(=O)/C(=C/c3ccc(F)cc3)C(F)(F)F)c2)n1
< 5.00 | 5.20 | 5.66 |  |  |  | COc1cc(N2CCN(C)CC2)ccc1Nc1ncc(Cl)c(Oc2cccc(NC(=O)/C(=C/c3ccc(N(C)C)cc3)C(F)(F)F)c2)n1
< 5.00 | 5.74 | 6.03 |  |  |  | COc1cc(N2CCN(C)CC2)ccc1Nc1ncc(Cl)c(Oc2cccc(NC(=O)/C(C#N)=C/c3ccc(C#N)cc3)c2)n1
